In the NIST ThermoML archive (doi:10.1016/j.jct.2017.08.004):
Numbers after ± are expanded uncertainties.

Experiment: molar heat capacity at constant pressure
Conditions: 101.33 kPa, Crystal

O[C@H]1[C@H](O)[C@@H](O)[C@H](O)[C@@H](O)[C@H]1O [cis-1,2,3,5-trans-4,6-cyclohexanehexol]
Conditions	molar heat capacity at constant pressure [J/K/mol]
1 K, relaxation calorimetry	0.00189 ± 0.00021
1.926 K, relaxation calorimetry	0.009609 ± 0.0008
2 K, relaxation calorimetry	0.0108 ± 0.00074
2.127 K, relaxation calorimetry	0.01292 ± 0.0011
2.354 K, relaxation calorimetry	0.01758 ± 0.0013
2.61 K, relaxation calorimetry	0.02281 ± 0.0017
2.904 K, relaxation calorimetry	0.03148 ± 0.0023
3 K, relaxation calorimetry	0.03479 ± 0.0023
3.219 K, relaxation calorimetry	0.04281 ± 0.0031
3.569 K, relaxation calorimetry	0.0586 ± 0.0042
3.959 K, relaxation calorimetry	0.08072 ± 0.0058
4 K, relaxation calorimetry	0.08367 ± 0.0053
4.391 K, relaxation calorimetry	0.1121 ± 0.008
4.872 K, relaxation calorimetry	0.1562 ± 0.011
5 K, relaxation calorimetry	0.1693 ± 0.011
5.405 K, relaxation calorimetry	0.2182 ± 0.015
5.998 K, relaxation calorimetry	0.3056 ± 0.021
6 K, relaxation calorimetry	0.3048 ± 0.019
6.654 K, relaxation calorimetry	0.4273 ± 0.03
7 K, relaxation calorimetry	0.5031 ± 0.031
7.388 K, relaxation calorimetry	0.5992 ± 0.042
8 K, relaxation calorimetry	0.7731 ± 0.048
8.198 K, relaxation calorimetry	0.8347 ± 0.058
9 K, relaxation calorimetry	1.113 ± 0.069
9.101 K, relaxation calorimetry	1.15 ± 0.08
10 K, relaxation calorimetry	1.523 ± 0.094
10.15 K, relaxation calorimetry	1.591 ± 0.11
11.25 K, relaxation calorimetry	2.131 ± 0.15
12.48 K, relaxation calorimetry	2.827 ± 0.2
13.85 K, relaxation calorimetry	3.674 ± 0.26
15 K, relaxation calorimetry	4.447 ± 0.27
15.39 K, relaxation calorimetry	4.714 ± 0.33
17.07 K, relaxation calorimetry	5.945 ± 0.41
18.96 K, relaxation calorimetry	7.393 ± 0.52
20 K, relaxation calorimetry	8.193 ± 0.5
21.04 K, relaxation calorimetry	8.992 ± 0.37
23.37 K, relaxation calorimetry	10.83 ± 0.44
25 K, relaxation calorimetry	12.09 ± 0.74
25.95 K, relaxation calorimetry	12.77 ± 0.52
28.81 K, relaxation calorimetry	14.98 ± 0.61
30 K, relaxation calorimetry	15.9 ± 0.97
32 K, relaxation calorimetry	17.42 ± 0.71
35 K, relaxation calorimetry	19.73 ± 1.2
35.5 K, relaxation calorimetry	20.13 ± 0.82
39.37 K, relaxation calorimetry	23.3 ± 0.95
40 K, relaxation calorimetry	23.68 ± 1.4
43.71 K, relaxation calorimetry	26.66 ± 1.1
45 K, relaxation calorimetry	27.69 ± 1.7
48.5 K, relaxation calorimetry	30.26 ± 1.2
50 K, relaxation calorimetry	31.58 ± 1.9
53.84 K, relaxation calorimetry	34.36 ± 1.4
55 K, relaxation calorimetry	35.27 ± 2.2
59.75 K, relaxation calorimetry	39.03 ± 1.6
60 K, relaxation calorimetry	39.12 ± 2.4
65 K, relaxation calorimetry	43.04 ± 2.6
66.32 K, relaxation calorimetry	44.21 ± 1.8
70 K, relaxation calorimetry	47.02 ± 2.9
73.64 K, relaxation calorimetry	49.9 ± 2
75 K, relaxation calorimetry	51.04 ± 3.1
80 K, relaxation calorimetry	55.09 ± 3.4
81.73 K, relaxation calorimetry	56.7 ± 2.3
85 K, relaxation calorimetry	59.15 ± 3.6
90 K, relaxation calorimetry	63.21 ± 3.9
90.71 K, relaxation calorimetry	63.72 ± 2.6
95 K, relaxation calorimetry	67.25 ± 4.1
100 K, relaxation calorimetry	71.28 ± 4.4
100.66 K, relaxation calorimetry	71.12 ± 2.9
110 K, relaxation calorimetry	79.22 ± 4.9
110.79 K, relaxation calorimetry	79.63 ± 3.2
120 K, relaxation calorimetry	87.03 ± 5.3
120.83 K, relaxation calorimetry	87.98 ± 3.6
130 K, relaxation calorimetry	94.69 ± 5.8
130.89 K, relaxation calorimetry	95.77 ± 3.9
140 K, relaxation calorimetry	102.22 ± 6.3
141.02 K, relaxation calorimetry	103.28 ± 4.2
150 K, relaxation calorimetry	109.64 ± 6.7
151.12 K, relaxation calorimetry	110.61 ± 4.5
160 K, relaxation calorimetry	116.97 ± 7.2
161.24 K, relaxation calorimetry	117.92 ± 4.8
170 K, relaxation calorimetry	124.22 ± 7.6
171.29 K, relaxation calorimetry	125.13 ± 5.1
180 K, relaxation calorimetry	131.43 ± 8.1
181.39 K, relaxation calorimetry	132.46 ± 5.4
188.15 K, Small sample (50 mg) DSC	132.1 ± 19
189.15 K, Small sample (50 mg) DSC	133.01 ± 19
190 K, relaxation calorimetry	138.61 ± 8.5
190.15 K, Small sample (50 mg) DSC	134.04 ± 19
191.15 K, Small sample (50 mg) DSC	134.87 ± 19
191.48 K, relaxation calorimetry	139.61 ± 5.7
192.15 K, Small sample (50 mg) DSC	135.65 ± 19
193.15 K, Small sample (50 mg) DSC	136.44 ± 19
194.15 K, Small sample (50 mg) DSC	137.52 ± 19
195.15 K, Small sample (50 mg) DSC	138.44 ± 19
196.15 K, Small sample (50 mg) DSC	139.45 ± 20
197.15 K, Small sample (50 mg) DSC	140.42 ± 20
198.15 K, Small sample (50 mg) DSC	141.25 ± 20
199.15 K, Small sample (50 mg) DSC	142.04 ± 20
200 K, relaxation calorimetry	145.78 ± 8.9
200.15 K, Small sample (50 mg) DSC	142.99 ± 20
201.15 K, Small sample (50 mg) DSC	143.81 ± 20
201.58 K, relaxation calorimetry	146.36 ± 6
202.15 K, Small sample (50 mg) DSC	144.76 ± 20
203.15 K, Small sample (50 mg) DSC	145.49 ± 20
204.15 K, Small sample (50 mg) DSC	146.25 ± 21
205.15 K, Small sample (50 mg) DSC	147.12 ± 21
206.15 K, Small sample (50 mg) DSC	147.9 ± 21
207.15 K, Small sample (50 mg) DSC	148.76 ± 21
208.15 K, Small sample (50 mg) DSC	149.37 ± 21
209.15 K, Small sample (50 mg) DSC	150.17 ± 21
210 K, relaxation calorimetry	152.96 ± 9.4
210.15 K, Small sample (50 mg) DSC	150.93 ± 21
211.15 K, Small sample (50 mg) DSC	151.82 ± 21
211.7 K, relaxation calorimetry	153.74 ± 6.2
212.15 K, Small sample (50 mg) DSC	152.59 ± 21
213.15 K, Small sample (50 mg) DSC	153.21 ± 22
214.15 K, Small sample (50 mg) DSC	154.05 ± 22
215.15 K, Small sample (50 mg) DSC	154.79 ± 22
216.15 K, Small sample (50 mg) DSC	155.5 ± 22
217.15 K, Small sample (50 mg) DSC	156.37 ± 22
